This note sets out measurements from patent US20240309003A1, “HETEROCYCLIC COMPOUNDS AS TRIGGERING RECEPTOR EXPRESSED ON MYELOID CELLS 2 AGONISTS AND METHODS OF USE” (Vigil Neuroscience, Inc., priority 2021, published 2024).

T1 sequence (Q9NZC2 19-230): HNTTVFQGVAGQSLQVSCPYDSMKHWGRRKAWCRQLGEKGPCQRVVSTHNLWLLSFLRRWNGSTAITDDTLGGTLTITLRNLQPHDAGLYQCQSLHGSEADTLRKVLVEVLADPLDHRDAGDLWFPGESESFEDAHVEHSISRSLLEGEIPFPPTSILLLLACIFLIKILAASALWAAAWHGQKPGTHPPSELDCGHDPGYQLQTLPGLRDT
T1 sequence (O43914 22-113 partner): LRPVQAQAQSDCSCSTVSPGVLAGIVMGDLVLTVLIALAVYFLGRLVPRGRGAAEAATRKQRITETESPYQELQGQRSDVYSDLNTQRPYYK

The first assay addresses T1, human TREM2 (Homo sapiens, UniProt Q9NZC2).
T1 construct: expressed in transfected cells; host or cells: HEK293T
In words: TREM2 agonist potency by cellular phosphorylation of Syk (AlphaLisa) in HEK293T-hTREM2 cells. The format is cell-based. Particulars: HEK293 cells expressing human TREM2 and DAP12, Table D. An outline of the steps:
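Agonist EC50 from a variable-slope four-parameter fit of % activation, based on AlphaLisa phospho-Syk levels in lysates. Cells: HEK293T-hTREM2 (with DAP12), treated 45 min at room temperature with compound in assay buffer.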
(In general: In Alpha technology, singlet oxygen from a donor bead excites a nearby acceptor bead.)
For orientation: EC50 means the concentration at which the effect is half-maximal. Low readings indicate an effect from little substance, high ones a need for much substance. `[2H]C([2H])([2H])c1nc2nc([C@@H]3CCO[C@H](c4ccnc(C)c4)C3)nc(-c3ccc(Cl)c(F)c3F)c2nc1C([2H])([2H])[2H]` [Example 136, 4-(4-chloro-2,3-difluorophenyl)-6,7-bis(methyl-d3)-2-((2S,4R)-2-(2-methylpyridin-4-yl)tetrahydro-2H-pyran-4-yl)pteridine] showed an EC50 below 0.05 µM.

The compound `Cc1cc2c(-c3ccc(F)cc3F)cc([C@H]3CCO[C@@H](c4cnn(C5CC5)c4)C3)nc2nc1C` [Example 232] returned an EC50 below 0.05 µM.

Take `COc1ncccc1[C@@H]1C[C@H](c2nc(C34CC(C(F)(F)F)(C3)C4)c3nc(C)c(C)nc3n2)CCO1` [Example 143, 2-((2S,4R)-2-(2-methoxypyridin-3-yl)tetrahydro-2H-pyran-4-yl)-6,7-dimethyl-4-(3-(trifluoromethyl)bicyclo[1.1.1]pentan-1-yl)pteridine]: the EC50 was 0.5 to 3 µM.

As for `Cc1nc2nc(N3CCOC(c4cc[nH]c(=O)c4)C3)nc(C34CC(C(F)(F)F)(C3)C4)c2nc1C` (centres unmarked) [Example 197, 4-(4-(6,7-dimethyl-4-(3-(trifluoromethyl)bicyclo[1.1.1]pentan-1-yl)pteridin-2-yl)morpholin-2-yl)pyridin-2(1H)-one], the EC50 was below 0.05 µM.

`Cc1nc2nc(C3C[C@@H](C)O[C@@H](c4cn[nH]c4)C3)nc(-c3ccc(F)cc3F)c2nc1C` (some centres unmarked) [Example 168] came in with an EC50 of 0.05 to 0.5 µM.

`Cc1nc2nc([C@H]3C[C@@H](C)O[C@@H](c4cnn(C5CC5)c4)C3)nc(-c3ccc(C(F)(F)F)cc3)c2nc1C` [Example 159, 2-((2R,4S,6R)-2-(1-cyclopropyl-1H-pyrazol-4-yl)-6-methyltetrahydro-2H-pyran-4-yl)-6,7-dimethyl-4-(4-(trifluoromethyl)phenyl) pteridine] showed an EC50 below 0.05 µM.

`Cc1ccc2c(-c3ccc(Cl)c(F)c3F)nc([C@H]3CCO[C@@H](c4cnn(C5CC5)c4)C3)nc2n1` [Example 218, 4-(4-chloro-2,3-difluorophenyl)-2-((2R,4S)-2-(1-cyclopropyl-1H-pyrazol-4-yl)tetrahydro-2H-pyran-4-yl)-7-methylpyrido[2,3-d]pyrimidine] showed an EC50 below 0.05 µM.

Regarding `Cc1nc2nc([C@H]3CCO[C@@H](c4cnn(C5CC5)c4)C3)nc(C3CCC(F)(F)CC3)c2nc1C` [Example 180, 2-((2R,4S)-2-(1-cyclopropyl-1H-pyrazol-4-yl)tetrahydro-2H-pyran-4-yl)-4-(4,4-difluorocyclohexyl)-6,7-dimethylpteridine], the EC50 was below 0.05 µM.

In turn, `[2H]C1([2H])C[C@H](c2nc(-c3ccc(Cl)cc3F)c3nc(C)c(C)nc3n2)C[C@]([2H])(c2cnn(C3CC3)c2)O1` [Example 192, 4-(4-chloro-2-fluorophenyl)-2-((2R,4S)-2-(1-cyclopropyl-1H-pyrazol-4-yl)tetrahydro-2H-pyran-4-yl-2,6,6-d3)-6,7-dimethylpteridine] yielded an EC50 below 0.05 µM.

`Cc1nc2nc(N3CCN(C)[C@H](c4cnn(C5CC5)c4)C3)nc(-c3ccc(Cl)cc3F)c2nc1C` [Example 207, (R)-4-(4-chloro-2-fluorophenyl)-2-(3-(1-cyclopropyl-1H-pyrazol-4-yl)-4-methylpiperazin-1-yl)-6,7-dimethylpteridine] displayed an EC50 below 0.05 µM.

Turning to `Cc1nc2nc([C@H]3CCO[C@@H](c4cnn(C5CC5)c4)C3)nc(-c3cc(F)c(F)cc3F)c2nc1C` [Example 153, 2-((2R,4S)-2-(1-cyclopropyl-1H-pyrazol-4-yl)tetrahydro-2H-pyran-4-yl)-6,7-dimethyl-4-(2,4,5-trifluorophenyl)pteridine], the EC50 is below 0.05 µM.

`Cc1cnc2c(C34CC(C(F)(F)F)(C3)C4)nc(N3C[C@@H](c4cnn(C5CC5)c4)O[C@@H](C)C3)nc2n1` [Example 125, (2R,6S)-2-(1-cyclopropyl-1H-pyrazol-4-yl)-6-methyl-4-(7-methyl-4-(3-(trifluoromethyl)bicyclo[1.1.1]pentan-1-yl)pteridin-2-yl)morpholine] registered an EC50 below 0.05 µM.

The compound `[2H]C1(n2cc([C@H]3C[C@@H](c4nc(-c5ccc(Cl)cc5F)c5nc(C)c(C)nc5n4)CCO3)cn2)CC1` [Example 179, 4-(4-chloro-2-fluorophenyl)-2-((2R,4S)-2-(1-(cyclopropyl-1-d)-1H-pyrazol-4-yl)tetrahydro-2H-pyran-4-yl)-6,7-dimethylpteridine] registered a half-maximal effective concentration (EC50) below 0.05 µM.

Take `Cc1nc2nc(-c3ccc(Cl)cc3F)cc([C@@H]3CCO[C@@H](c4cnn(C5CC5)c4)C3)c2nc1C` [Example 236, 6-(4-chloro-2-fluorophenyl)-8-((2R,4R)-2-(1-cyclopropyl-1H-pyrazol-4-yl)tetrahydro-2H-pyran-4-yl)-2,3-dimethylpyrido[2,3-b]pyrazine]: the EC50 lay in the range of 0.05 to 0.5 µM.

Turning to `Cc1nc2nc([C@H]3CCO[C@@H](c4cnn(C5CC5)c4)C3)nc(C3CCCCC3)c2nc1C` [Example 247, 4-cyclohexyl-2-((2R,4S)-2-(1-cyclopropyl-1H-pyrazol-4-yl)tetrahydro-2H-pyran-4-yl)-6,7-dimethylpteridine], the EC50 is below 0.05 µM.

The same assay, now with this note: HEK293 cells expressing human TREM2 and DAP12, Table D-2.
`COc1nc2c(-c3ccc(C(F)(F)F)cc3F)nc([C@H]3CCO[C@@H](c4cnn(C5CC5)c4)C3)nc2nc1C` (stereo in doubt) [Example I-1691, 2-((2R,4S)-2-(1-cyclopropyl-1H-pyrazol-4-yl)tetrahydro-2H-pyran-4-yl)-4-(2-fluoro-4-(trifluoromethyl)phenyl)-6-methoxy-7-methylpteridine] came in with an EC50 below 0.05 µM.

`Cc1nc2nc(N3C[C@@H](C4CC4)O[C@@H](c4cnn(C5CC5)c4)C3)nc(-c3ccc(F)cc3F)c2nc1C` [Example I-1381] registered an EC50 below 0.05 µM.

With `COCCn1cc([C@H]2C[C@@H](c3nc(-c4ccc(F)cc4F)c4nc(C)c(C)nc4n3)CCO2)cn1` (stereo in doubt) [Example I-1658, 4-(2,4-difluorophenyl)-2-(2-(1-(2-methoxyethyl)-1H-pyrazol-4-yl)tetrahydro-2H-pyran-4-yl)-6,7-dimethylpteridine], the EC50 lay within 0.05 to 0.5 µM.

Consider `Cc1cc2c(-c3ccc(F)cc3F)nc(N3C[C@@H](C)O[C@@H](c4cn(C)cn4)C3)nc2nc1C` [Example I-1260, (2R,6R)-4-[4-(2,4-difluorophenyl)-6,7-dimethyl-pyrido[2,3-d]pyrimidin-2-yl]-2-methyl-6-(1-methylimidazol-4-yl)morpholine; formic acid], for which the EC50 was in the range of 0.5 to 3 µM.

Compound `Cc1nc2nc(N3C[C@@H](c4cnn(C5CC5)c4)O[C@@H](C(F)F)C3)nc(-c3ccc(C(F)(F)F)cc3F)c2nc1C` [Example I-1638, (2R,6R)-2-(1-cyclopropylpyrazol-4-yl)-6-(difluoromethyl)-4-[4-[2-fluoro-4-(trifluoromethyl)phenyl]-6,7-dimethyl-pteridin-2-yl]morpholine] had a concentration for a half-maximal effect (EC50) below 0.05 µM.

As to `CN(C)C(=O)c1nc2c(-c3ccc(F)cc3F)nc(C3CCO[C@@H](c4cnn(C5CC5)c4)C3)nc2nc1C1CC1` (stereo partly drawn) [Example I-1603, 7-cyclopropyl-2-[(2R)-2-(1-cyclopropylpyrazol-4-yl)tetrahydropyran-4-yl]-4-(2,4-difluorophenyl)-N,N-dimethyl-pteridine-6-carboxamide], the EC50 lay in the range of 0.5 to 3 µM.

`Cc1cc([C@@H]2CN(c3nc(-c4ccc(Cl)cc4F)c4nc(C)c(C)nc4n3)CCO2)on1` (stereo in doubt) [Example I-1241, 4-[4-(4-chloro-2-fluoro-phenyl)-6,7-dimethyl-pteridin-2-yl]-2-(3-methylisoxazol-5-yl)morpholine] returned an EC50 below 0.05 µM.

`Cc1nc2nc(N3C[C@@H](CO)O[C@@H](c4cnn(C5CC5)c4)C3)nc(-c3ccc(F)cc3F)c2nc1C` [Example I-1333, [(2S,6S)-6-(1-cyclopropylpyrazol-4-yl)-4-[4-(2,4-difluorophenyl)-6,7-dimethyl-pteridin-2-yl]morpholin-2-yl]methanol] yielded an EC50 of 0.05 to 0.5 µM.

In turn, `Cc1nc2nc(N3C[C@@H](C)O[C@@H](c4cnn(C5CC5)c4CO)C3)nc(-c3ccc(F)cc3F)c2nc1C` [Example I-1462, [2-cyclopropyl-4-[(2S,6R)-4-[4-(2,4-difluorophenyl)-6,7-dimethyl-pteridin-2-yl]-6-methyl-morpholin-2-yl]pyrazol-3-yl]methanol] displayed an EC50 of 0.05 to 0.5 µM.

`Cc1nc2nc(N3C[C@@H](C)O[C@@H](c4cnn(C5CC5)c4)C3)nc(-c3cc(F)c(C(F)(F)F)cc3F)c2nc1C` [Example I-1538, (2S,6R)-2-(1-cyclopropylpyrazol-4-yl)-4-[4-[2,5-difluoro-4-(trifluoromethyl)phenyl]-6,7-dimethyl-pteridin-2-yl]-6-methyl-morpholine] yielded an EC50 below 0.05 µM.

Consider `Cc1cc([C@@H]2CN(c3nc(-c4ccc(Cl)cc4F)c4nc(C)c(C)nc4n3)CCO2)no1` [Example I-1270, 4-[4-(4-chloro-2-fluoro-phenyl)-6,7-dimethyl-pteridin-2-yl]-2-(5-methylisoxazol-3-yl)morpholine], for which the EC50 lay within 0.05 to 0.5 µM.

As for `Cc1nc2nc(N3C[C@@H](C)O[C@@H](c4cnn(CCO)c4)C3)nc(-c3ccc(Cl)cc3F)c2nc1C` [Example I-1686, 2-(4-((2S,6R)-4-(4-(4-chloro-2-fluorophenyl)-6,7-dimethylpteridin-2-yl)-6-methylmorpholin-2-yl)-1H-pyrazol-1-yl)ethan-1-ol], the 50% effective concentration (EC50) was below 0.05 µM.

Regarding `CCCc1ccc(-c2nc([C@H]3CCO[C@@H](c4cnn(C5CC5)c4)C3)nc3nc(C)c(C)nc23)c(F)c1` [Example I-1197], the EC50 lay in the range of 0.05 to 0.5 µM.

Turning to `Cc1nc2nc(N3C[C@@H](C)O[C@@H](c4cnn(C(F)F)c4)C3)nc(-c3ccc(F)cc3F)c2nc1C` [Example I-1472, (2S,6R)-2-[1-(difluoromethyl)pyrazol-4-yl]-4-[4-(2,4-difluorophenyl)-6,7-dimethyl-pteridin-2-yl]-6-methyl-morpholine], the EC50 is below 0.05 µM.
